Here are results for 15 compounds from BindingDB's records for doi:10.1021/jm0600390 (Mcgill University Health Center/Royal Victoria Hospital, 2006).

As a reminder, the IC50 is the concentration needed to halve the response being measured. A low value points to greater potency in that assay.

A short description of this test: Inhibition of serum-stimulated proliferation of mouse ERBB2 transfected NIH3T3 cell line after 24 hrs.
For `CNc1ccc2ncnc(Nc3cccc(C)c3)c2c1` [4-[(3-methylphenyl)amino]-6-(methylamino)quinazoline], 2070 nM corresponded to half-maximal inhibition (IC50). This counts as single-digit micromolar.

As for `Cc1cccc(Nc2ncnc3ccc(N(C)C(=O)N(CCCl)N=O)cc23)c1` [1-(2-chloroethyl)-1-nitroso-3-methyl-3-{[4-(3-methylphenyl)amino]quinazolin-6-yl}urea], the half-maximal inhibitory concentration (IC50) came to 6880 nM. `CNc1ccc2ncnc(Nc3cccc(Cl)c3)c2c1` [4-[(3-chlorophenyl)amino]-6-(methylamino)quinazoline] showed an IC50 of 890 nM. To `Cc1cccc(Nc2ncnc3ccc(N)cc23)c1` [N4-(3-methylphenyl)-4,6-quinazolinediamine] belongs 6390 nM. On to `O=NN(CCCl)C(=O)Nc1ccc2ncnc(Nc3cccc(Br)c3)c2c1` [1-(2-chloroethyl)-1-nitroso-3-{[4-(3-bromophenyl)amino]quinazolin-6-yl}urea], for which the IC50 is 1150 nM. The compound `Nc1ccc2ncnc(Nc3cccc(Br)c3)c2c1` had an IC50 of 670 nM. To `Cc1cccc(Nc2ncnc3ccc(NC(=O)N(CCCl)N=O)cc23)c1` [1-(2-Chloroethyl)-1-nitroso-3-{[4-(3-methylphenyl)amino]quinazolin-6-yl}urea] belongs 12200 nM; to `Cc1cccc(Nc2ncnc3ccc(NC(=O)NCCCl)cc23)c1` [1-(2-chloroethyl)-3-{[4-(3-methylphenyl)amino]quinazolin-6-yl}urea], 2100 nM. To `CNc1ccc2ncnc(Nc3cccc(Br)c3)c2c1` [4-N-(3-bromophenyl)-6-N-methylquinazoline-4,6-diamine] belongs 170 nM; to `Nc1ccc2ncnc(Nc3cccc(Cl)c3)c2c1`, 3290 nM; to `CN(C(=O)N(CCCl)N=O)c1ccc2ncnc(Nc3cccc(Cl)c3)c2c1` [1-(2-chloroethyl)-1-nitroso-3-methyl-3-{[4-(3-chloro-phenyl)amino]quinazolin-6-yl}urea], 680 nM.

`O=NN(CCCl)C(=O)Nc1ccc2ncnc(Nc3cccc(Cl)c3)c2c1` [1-(2-Chloroethyl)-1-nitroso-3-{[4-(3-chlorophenyl)amino]quinazolin-6-yl}urea] showed a half-maximal inhibitory concentration (IC50) of 5400 nM. As for `O=C(NCCCl)Nc1ccc2ncnc(Nc3cccc(Cl)c3)c2c1` [1-(2-chloroethyl)-3-{[4-(3-chlorophenyl)amino]quinazolin-6-yl}urea], the figure is 1350 nM; as for `CN(C(=O)N(CCCl)N=O)c1ccc2ncnc(Nc3cccc(Br)c3)c2c1` [1-(2-chloroethyl)-1-nitroso-3-methyl-3-{[4-(3-bromophenyl)amino]quinazolin-6-yl}urea], 3060 nM. As for `O=C(NCCCl)Nc1ccc2ncnc(Nc3cccc(Br)c3)c2c1` [1-(2-chloroethyl)-3-{[4-(3-bromophenyl)amino]quinazolin-6-yl}urea], the figure is 1770 nM.
